One experiment has as its target T1, hNLRP3 inflammasome (Homo sapiens, UniProt Q96P20).
T1 construct: endogenous in cells; host or cells: THP-1 cells, PMA-differentiated
Description: Agonistic effect on the expression of IL-1β in THP-1 cells after PMA-induced differentiation (HTRF). Type of experiment: cell-based. Conditions: IL-1β level, PMA-differentiated THP-1 cells, 6 hours. The essentials: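 THP-1 cells differentiated with 1 μM PMA for 24 h, then replated at 1×10^5 cells/well in RPMI 1640 with 2% FBS. Compounds added for 6 h at 37 °C, 5% CO2. Supernatant IL-1β measured by HTRF; EC50 from four-parameter variable-slope fit.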

A further experiment deals with T2, hTLR8 (Homo sapiens, UniProt Q9NR97).
T2 construct: host or cells: HEK-Blue hTLR8 cells
T2 sequence (Q9NR97 27-1041): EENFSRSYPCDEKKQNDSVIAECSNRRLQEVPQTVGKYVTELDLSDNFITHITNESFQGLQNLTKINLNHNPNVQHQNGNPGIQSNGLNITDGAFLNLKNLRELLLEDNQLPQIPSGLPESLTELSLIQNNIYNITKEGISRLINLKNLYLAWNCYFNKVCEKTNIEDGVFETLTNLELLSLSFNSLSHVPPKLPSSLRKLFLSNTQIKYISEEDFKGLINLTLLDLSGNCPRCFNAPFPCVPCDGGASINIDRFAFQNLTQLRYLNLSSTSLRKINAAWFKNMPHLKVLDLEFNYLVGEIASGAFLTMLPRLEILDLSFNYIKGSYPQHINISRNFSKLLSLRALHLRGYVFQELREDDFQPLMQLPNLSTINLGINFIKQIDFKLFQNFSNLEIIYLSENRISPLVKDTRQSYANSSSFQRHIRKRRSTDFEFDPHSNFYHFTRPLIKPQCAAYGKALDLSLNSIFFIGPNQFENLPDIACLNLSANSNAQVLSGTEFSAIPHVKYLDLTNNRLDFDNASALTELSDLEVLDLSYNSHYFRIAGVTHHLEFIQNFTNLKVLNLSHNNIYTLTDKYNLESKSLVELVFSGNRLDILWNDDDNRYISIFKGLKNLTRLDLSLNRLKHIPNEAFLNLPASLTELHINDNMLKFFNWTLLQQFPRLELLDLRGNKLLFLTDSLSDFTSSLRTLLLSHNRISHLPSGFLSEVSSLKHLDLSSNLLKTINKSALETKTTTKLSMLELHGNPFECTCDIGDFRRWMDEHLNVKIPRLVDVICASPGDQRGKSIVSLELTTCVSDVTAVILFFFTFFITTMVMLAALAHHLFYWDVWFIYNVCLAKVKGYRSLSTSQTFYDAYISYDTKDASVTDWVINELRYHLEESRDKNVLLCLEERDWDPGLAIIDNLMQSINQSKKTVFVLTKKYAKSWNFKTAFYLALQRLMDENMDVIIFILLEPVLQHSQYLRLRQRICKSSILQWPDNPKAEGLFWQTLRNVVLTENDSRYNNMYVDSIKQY
Description: Agonistic effect on hTLR8, HEK-Blue hTLR8 cells, alkaline phosphatase secretion. Type of experiment: cell-based. Conditions: 16 hours. The method in brief: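 HEK-Blue hTLR8 reporter cells were treated with compound (diluted from 10 mM DMSO stock) for 16 h at 37 °C in DMEM/10% FBS. Secreted alkaline phosphatase in supernatant was detected with QUANTI-Blue after 3 h at 37 °C, read at OD620. EC50 came from a four-parameter variable-slope fit.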

The structures appear in SMILES notation.

T1 sequence (Q96P20 whole entry): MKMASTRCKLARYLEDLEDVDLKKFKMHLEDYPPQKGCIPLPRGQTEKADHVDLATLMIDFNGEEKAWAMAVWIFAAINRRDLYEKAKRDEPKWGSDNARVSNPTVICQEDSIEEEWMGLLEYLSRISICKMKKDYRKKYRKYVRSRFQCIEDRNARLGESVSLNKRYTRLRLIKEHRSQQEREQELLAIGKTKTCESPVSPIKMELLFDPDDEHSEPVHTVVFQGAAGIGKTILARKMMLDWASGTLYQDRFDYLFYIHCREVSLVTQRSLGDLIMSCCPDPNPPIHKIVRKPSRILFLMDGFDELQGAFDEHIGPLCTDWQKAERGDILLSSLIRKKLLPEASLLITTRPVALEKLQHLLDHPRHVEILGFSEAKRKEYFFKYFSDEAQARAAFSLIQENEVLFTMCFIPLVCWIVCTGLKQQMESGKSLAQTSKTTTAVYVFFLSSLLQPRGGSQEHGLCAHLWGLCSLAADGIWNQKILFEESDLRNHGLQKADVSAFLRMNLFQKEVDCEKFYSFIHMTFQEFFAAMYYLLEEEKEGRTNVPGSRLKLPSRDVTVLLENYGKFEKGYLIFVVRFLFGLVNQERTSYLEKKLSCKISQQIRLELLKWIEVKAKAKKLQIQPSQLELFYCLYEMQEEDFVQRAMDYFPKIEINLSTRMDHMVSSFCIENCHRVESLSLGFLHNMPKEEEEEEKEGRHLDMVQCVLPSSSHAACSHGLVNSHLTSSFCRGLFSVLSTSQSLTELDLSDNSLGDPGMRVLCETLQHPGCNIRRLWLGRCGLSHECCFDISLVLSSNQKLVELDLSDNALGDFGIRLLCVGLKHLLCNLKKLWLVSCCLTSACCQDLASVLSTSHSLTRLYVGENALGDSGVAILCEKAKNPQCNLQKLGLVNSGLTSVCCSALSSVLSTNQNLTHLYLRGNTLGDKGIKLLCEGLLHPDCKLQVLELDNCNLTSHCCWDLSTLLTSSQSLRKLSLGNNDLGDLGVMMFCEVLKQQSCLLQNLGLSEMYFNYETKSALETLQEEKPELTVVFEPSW

Turning to `Cc1noc(C)c1CNc1cc(N)nc2cc(-c3ccn[nH]3)sc12` [Compound 149, N^7-((3,5-dimethylisoxazol-4-yl)methyl)-2-(1H-pyrazol-5-yl)thieno[3,2-b]pyridine-5,7-diamine], the EC50 is 0.04 µM at hNLRP3 inflammasome and over 100000 nM at hTLR8.

Turning to `CC(C)C[C@H](CO)Nc1cc(N)nc2cc(-c3ccn[nH]3)sc12` [Compound 144, (R)-2-((5-amino-2-(1H-pyrazol-5-yl)thieno[3,2-b]pyridin-7-yl)amino)-4-methyl-1-pentanol], the EC50 on hNLRP3 inflammasome is 0.38 µM; on hTLR8, over 100000 nM.

Consider `COC[C@@H](C)Nc1cc(N)nc2cc(-c3ccn[nH]3)sc12` [Compound 133, (R)—N^7-(1-methoxyprop-2-yl)-2-(1H-pyrazol-5-yl)thieno[3,2-b]pyridine-5,7-diamine], for which the figures for the EC50 at hNLRP3 inflammasome and at hTLR8 were 0.58 µM and over 100000 nM, respectively.

Turning to `Cc1c(-c2cc[nH]n2)sc2c(NCC(C)(C)CO)cc(N)nc12` [Compound 151], the EC50 at hNLRP3 inflammasome was 3.66 µM; on hTLR8, over 100000 nM.

`Nc1cc(N[C@H]2CC[C@H](O)CC2)c2sc(-c3ccn[nH]3)cc2n1` [Compound 147, (1R,4R)-4-((5-amino-2-(1H-pyrazol-5-yl)thieno[3,2-b]pyridin-7-yl)amino)cyclohexanol]: the results for the EC50 at hNLRP3 inflammasome and on hTLR8 were 0.03 µM and over 100000 nM, respectively.

`COCCNc1cc(N)nc2c(C)c(-c3cc[nH]n3)sc12` [Compound 152]: the EC50 on hNLRP3 inflammasome was 2.75 µM; at hTLR8, over 100000 nM.

In the case of `CCC(=O)N(CC)CCNc1cc(N)nc2cc(-c3ccn[nH]3)sc12` [Compound 145, N-(2-((5-amino-2-(1H-pyrazol-5-yl)thieno[3,2-b]pyridin-7-yl)amino)ethyl)-N-ethylpropionamide], the values for the EC50 at hNLRP3 inflammasome and on hTLR8 were 0.31 µM and over 100000 nM, respectively.

`CCN(CCNc1cc(N)nc2cc(-c3ccn[nH]3)sc12)C(=O)C1CC1` [Compound 146, N-(2-((5-amino-2-(1H-pyrazol-5-yl)thieno[3,2-b]pyridin-7-yl)amino)ethyl)-N-ethylcyclopropyl formamide]: the EC50 is 0.29 µM on hNLRP3 inflammasome and over 100000 nM on hTLR8.

As for `CC(C)CNc1cc(N)nc2cc(-c3ccn[nH]3)sc12` [Compound 141, N^7-isobutyl-2-(1H-pyrazol-5-yl)thieno[3,2-b]pyridin-5,7-diamine], the EC50 at hNLRP3 inflammasome is 0.03 µM; at hTLR8 it was over 100000 nM.

Turning to `CC(C)(O)CNc1cc(N)nc2cc(-c3ccn[nH]3)sc12` [Compound 28, (1-(5-amino-2-(1H-pyrazol-5-yl)thieno[3,2-b]pyridin-7-yl)amino)-2-methyl-2-propanol], the EC50 is 0.54 µM at hNLRP3 inflammasome and over 100000 nM at hTLR8.

As to `CCN(CCNc1cc(N)nc2cc(-c3ccn[nH]3)sc12)C(=O)Cc1cccc(C)c1` [Compound 140, N-(2-((5-amino-2-(1H-pyrazol-5-yl)thieno[3,2-b]pyridin-7-yl)amino)ethyl)-N-ethyl-2-(m-tolyl)acetamide], the EC50 on hNLRP3 inflammasome was 0.5 µM; at hTLR8 it was over 100000 nM.

`CN(CCO)c1cc(N)nc2cc(-c3ccn[nH]3)sc12` [Compound 139, 2-((5-amino-2-(1H-pyrazol-5-yl)thieno[3,2-b]pyridin-7-yl)(methyl)amino)ethanol]: the results for the EC50 at hNLRP3 inflammasome and on hTLR8 were 0.07 µM and over 100000 nM, respectively.

`Nc1cc(NCCN2CCCC2=O)c2sc(-c3ccn[nH]3)cc2n1` [Compound 135, 1-(2-((5-amino-2-(1H-pyrazol-5-yl)thieno[3,2-b]pyridin-7-yl)amino)ethyl)pyrrolidin-2-one]: the EC50 is 0.32 µM on hNLRP3 inflammasome and over 100000 nM on hTLR8.

`CN(CCCO)c1cc(N)nc2cc(-c3ccn[nH]3)sc12` [Compound 127, 3-((5-amino-2-(1H-pyrazol-5-yl)thieno[3,2-b]pyridin-7-yl)(methyl)amino)-1-propanol]: the figures for the EC50 at hNLRP3 inflammasome and on hTLR8 were 0.11 µM and over 100000 nM, respectively.

Take `Nc1cc(NCC2CCC2)c2sc(-c3ccn[nH]3)cc2n1` [Compound 126, N^7-(cyclobutylmethyl)-2-(1H-pyrazol-5-yl)thieno[3,2-b]pyridine-5,7-diamine]: the EC50 was 0.35 µM at hNLRP3 inflammasome and over 100000 nM on hTLR8.

In the case of `C[C@@H](O)CNc1cc(N)nc2cc(-c3ccn[nH]3)sc12` [Compound 29], the concentration for a half-maximal effect (EC50) at hNLRP3 inflammasome was 0.16 µM; at hTLR8, over 100000 nM.

Regarding `Nc1cc(NCC(CO)CO)c2sc(-c3ccn[nH]3)cc2n1` [Compound 136], the EC50 at hNLRP3 inflammasome was 0.05 µM; on hTLR8, over 100000 nM.

Consider `CNC(=O)CNc1cc(N)nc2cc(-c3ccn[nH]3)sc12` [Compound 137, 2-((5-amino-2-(1H-pyrazol-5-yl)thieno[3,2-b]pyridin-7-yl)amino)-N-methylacetamide], for which the EC50 is 0.95 µM on hNLRP3 inflammasome and over 100000 nM at hTLR8.

Regarding `Nc1cc(NCCCN2CCCC2=O)c2sc(-c3ccn[nH]3)cc2n1` [Compound 150], the EC50 was 0.16 µM on hNLRP3 inflammasome and over 100000 nM on hTLR8.

Turning to `C[C@@H]1CN(c2cc(N)nc3cc(-c4ccn[nH]4)sc23)C[C@@H](C)O1` [Compound 148, 7-((2R,6R)-2,6-dimethylmorpholino)-2-(1H-pyrazol-5-yl)thieno[3,2-b]pyridine-5-amine], the figures for the EC50 at hNLRP3 inflammasome and on hTLR8 were 0.008 µM and over 100000 nM, respectively.

For `Nc1cc(NC2CCC(F)(F)CC2)c2sc(-c3ccn[nH]3)cc2n1` [Compound 143, N^7-(4,4-difluorocyclohexyl)-2-(1H-pyrazol-5-yl)thieno[3,2-b]pyridin-5,7-diamine], the EC50 was 0.08 µM at hNLRP3 inflammasome and over 100000 nM on hTLR8.

`Nc1cc(N[C@H]2[C@@H]3CNC[C@@H]32)c2sc(-c3ccn[nH]3)cc2n1` [Compound 142, N^7-((1R,5S,6S)-3-azabicyclo[3.1.0]hex-6-yl)-2-(1H-pyrazol-5-yl)thieno[3,2-b]pyridin-5,7-diamine]: the half-maximal effective concentration (EC50) on hNLRP3 inflammasome was 0.14 µM; on hTLR8, over 100000 nM.

`C[C@]1(O)C[C@@H](Nc2cc(N)nc3cc(-c4ccn[nH]4)sc23)C1` [Compound 129, (1s,3s)-3-((5-amino-2-(1H-pyrazol-5-yl)thieno[3,2-b]pyridin-7-yl)amino)-1-methylcyclobutanol]: the EC50 on hNLRP3 inflammasome was 0.03 µM; on hTLR8 it was over 100000 nM.

For the compound `Nc1cc(NC(CCO)c2ccccc2)c2sc(-c3ccn[nH]3)cc2n1` (stereo not shown) [Compound 123, 3-((5-amino-2-(1H-pyrazol-5-yl)thieno[3,2-b]pyridin-7-yl)amino)-3-phenyl-1-propanol], the EC50 was 0.1 µM at hNLRP3 inflammasome and over 100000 nM on hTLR8.

Take `Nc1cc(N[C@@H]2CC[C@@H](O)C2)c2sc(-c3ccn[nH]3)cc2n1` [Compound 30, (1R,3R)-3-((5-amino-2-(1H-pyrazol-5-yl)thieno[3,2-b]pyridin-7-yl)amino)cyclopentanol]: the figures for the EC50 on hNLRP3 inflammasome and at hTLR8 were 0.03 µM and over 100000 nM, respectively.

`Cc1cccnc1CNc1cc(N)nc2cc(-c3ccn[nH]3)sc12` [Compound 134, N^7-((3-methylpyridin-2-yl)methyl)-2-(1H-pyrazol-5-yl)thieno[3,2-b]pyridine-5,7-diamine]: the EC50 on hNLRP3 inflammasome was 0.03 µM; on hTLR8 it was over 100000 nM.

On to `Nc1cc(NCC(=O)NC2CC2)c2sc(-c3ccn[nH]3)cc2n1` [Compound 138, 2-((5-amino-2-(1H-pyrazol-5-yl)thieno[3,2-b]pyridin-7-yl)amino)-N-cyclopropylacetamide], for which the concentration for a half-maximal effect (EC50) is 0.2 µM on hNLRP3 inflammasome and over 100000 nM on hTLR8.

`C[C@H]1CC[C@H](Nc2cc(N)nc3cc(-c4ccn[nH]4)sc23)CC1` [Compound 128, N^7-((1R,4R)-4-methylcyclohexyl)-2-(1H-pyrazol-5-yl)thieno[3,2-b]pyridine-5,7-diamine]: the EC50 at hNLRP3 inflammasome is 0.11 µM; on hTLR8 it was over 100000 nM.

In the case of `CC[C@@H](CO)Nc1cc(N)nc2cc(-c3ccn[nH]3)sc12` [Compound 132, (S)-2-((5-amino-2-(1H-pyrazol-5-yl)thieno[3,2-b]pyridin-7-yl)amino)-1-butanol], the EC50 at hNLRP3 inflammasome is 3.48 µM; at hTLR8, over 100000 nM.

Values taken from US20220056043A1, “NITROGEN-CONTAINING FUSED CYCLIC COMPOUND, PREPARATION METHOD THEREFOR AND USE THEREOF” (SICHUAN KELUN-BIOTECH BIOPHARMACEUTICAL CO., LTD., priority 2019, published 2022).
